Test results as given in patent US20240317721A1, “PYRAZOLYL DERIVATIVES AS INHIBITORS OF THE KRAS MUTANT PROTEIN” (NOVARTIS AG, priority 2021, published 2024).

Target: KRasG12C (M1-K169, biotinylated on the N-terminus) (Homo sapiens (Human), UniProt P01116, G12C)
Assay: Covalent competition assay: scintillation proximity assay (SPA) quantifying covalent modification of KRASG12C
Type: binding
Settings: competition with radiolabeled covalent probe (Compound B/Compound A), 2 hours incubation, 10 nM KRasG12C
In short: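 Test compounds compete with a radiolabeled covalent probe for modification of N-terminally biotinylated KRasG12C(M1-K169):GDP, final 10 nM protein, 25 nM radio-ligand, 475 nM unlabelled ligand, 2 h with agitation in 20 mM Tris-HCl pH 7.5, 150 mM NaCl, 0.1 mM MgCl2, 0.01% Tween-20.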

Row | Structure (SMILES) | IC50 [µM]
1 | C=CC(=O)N1CC2(CC(n3nc(N4CC[C@@H](CN5CC(O)C(OC)C5)CC4(C)C)c(-c4c(Cl)c(Cl)cc5[nH]ncc45)c3C)C2)C1 (single isomer, unassigned) [Example 273a, 1-(6-(4-(5,6-dichloro-1H-indazol-4-yl)-3-((R)-4-(((3S*,4S*)-3-hydroxy-4-methoxypyrrolidin-1-yl)methyl)-2,2-dimethylpiperidin-1-yl)-5-methyl-1H-pyrazol-1-yl)-2-azaspiro[3.3]heptan-2-yl)prop-2-en-1-one] | 1.1
2 | C=CC(=O)N1CC2(CC(n3nc(N4CC[C@@H](CN5CC(O)C(OC)C5)CC4(C)C)c(-c4c(Cl)c(Cl)cc5[nH]ncc45)c3C)C2)C1 (single isomer, unassigned) [Example 273b, 1-(6-(4-(5,6-dichloro-1H-indazol-4-yl)-3-((R)-4-(((3S*,4S*)-3-hydroxy-4-methoxypyrrolidin-1-yl)methyl)-2,2-dimethylpiperidin-1-yl)-5-methyl-1H-pyrazol-1-yl)-2-azaspiro[3.3]heptan-2-yl)prop-2-en-1-one] | 0.01
3 | C=CC(=O)N1CC2(CC(n3nc(N4CC[C@@H](CN5CC(O)C(OC)C5)CC4(C)C)c(-c4c(Cl)c(Cl)cc5[nH]ncc45)c3C)C2)C1 (single isomer, unassigned) [Example 274a, 1-(6-(4-(5,6-dichloro-1H-indazol-4-yl)-3-((R)-4-(((3S*,4S*)-3-hydroxy-4-methoxypyrrolidin-1-yl)methyl)-2,2-dimethylpiperidin-1-yl)-5-methyl-1H-pyrazol-1-yl)-2-azaspiro[3.3]heptan-2-yl)prop-2-en-1-one] | 0.795
4 | C=CC(=O)N1CC2(CC(n3nc(N4CC[C@@H](CN5CC(O)C(OC)C5)CC4(C)C)c(-c4c(Cl)c(Cl)cc5[nH]ncc45)c3C)C2)C1 (single isomer, unassigned) [Example 274b, 1-(6-(4-(5,6-dichloro-1H-indazol-4-yl)-3-((R)-4-(((3S*,4S*)-3-hydroxy-4-methoxypyrrolidin-1-yl)methyl)-2,2-dimethylpiperidin-1-yl)-5-methyl-1H-pyrazol-1-yl)-2-azaspiro[3.3]heptan-2-yl)prop-2-en-1-one] | 0.008
5 | C=CC(=O)N1CC2(CC(n3nc(N4CC[C@@H](CN5CCN6C(=O)COC[C@@H]6C5)CC4(C)C)c(-c4c(Cl)c(Cl)cc5[nH]ncc45)c3C)C2)C1 (single isomer, unassigned) [Example 275a] | > 5
6 | C=CC(=O)N1CC2(CC(n3nc(N4CC[C@@H](CN5CCN6C(=O)COC[C@@H]6C5)CC4(C)C)c(-c4c(Cl)c(Cl)cc5[nH]ncc45)c3C)C2)C1 (single isomer, unassigned) [Example 275b] | 0.007
7 | C=CC(=O)N1CC2(CC(n3nc(N4CC[C@@H](CN5CCCC56CN(C(C)=O)C6)CC4(C)C)c(-c4c(Cl)c(Cl)cc5[nH]ncc45)c3C)C2)C1 (single isomer, unassigned) [Example 276a] | 3.4
8 | C=CC(=O)N1CC2(CC(n3nc(N4CC[C@@H](CN5CCCC56CN(C(C)=O)C6)CC4(C)C)c(-c4c(Cl)c(Cl)cc5[nH]ncc45)c3C)C2)C1 (single isomer, unassigned) [Example 276b] | < 0.005
9 | C=CC(=O)N1CC2(CC(n3nc(N4CC[C@@H](CN5CC6C5CCN6C5COC5)CC4(C)C)c(-c4c(Cl)c(Cl)cc5[nH]ncc45)c3C)C2)C1 (single isomer, unassigned) [Example 277a, 1-(6-(4-(5,6-dichloro-1H-indazol-4-yl)-3-((R)-2,2-dimethyl-4-(((1S*,5S*)-2-(oxetan-3-yl)-2,6-diazabicyclo[3.2.0]heptan-6-yl)methyl)piperidin-1-yl)-5-methyl-1H-pyrazol-1-yl)-2-azaspiro[3.3]heptan-2-yl)prop-2-en-1-one] | 4.5
10 | C=CC(=O)N1CC2(CC(n3nc(N4CC[C@@H](CN5CC6C5CCN6C5COC5)CC4(C)C)c(-c4c(Cl)c(Cl)cc5[nH]ncc45)c3C)C2)C1 (single isomer, unassigned) [Example 277b, 1-(6-(4-(5,6-dichloro-1H-indazol-4-yl)-3-((R)-2,2-dimethyl-4-(((1S*,5S*)-2-(oxetan-3-yl)-2,6-diazabicyclo[3.2.0]heptan-6-yl)methyl)piperidin-1-yl)-5-methyl-1H-pyrazol-1-yl)-2-azaspiro[3.3]heptan-2-yl)prop-2-en-1-one] | < 0.005
11 | C=CC(=O)N1CC2(CC(n3nc(N4CC[C@@H](CN5CC6C5CCN6C5COC5)CC4(C)C)c(-c4c(Cl)c(Cl)cc5[nH]ncc45)c3C)C2)C1 (single isomer, unassigned) [Example 278a, 1-(6-(4-(5,6-dichloro-1H-indazol-4-yl)-3-((R)-2,2-dimethyl-4-(((1S*,5S*)-2-(oxetan-3-yl)-2,6-diazabicyclo[3.2.0]heptan-6-yl)methyl)piperidin-1-yl)-5-methyl-1H-pyrazol-1-yl)-2-azaspiro[3.3]heptan-2-yl)prop-2-en-1-one] | > 5
12 | C=CC(=O)N1CC2(CC(n3nc(N4CC[C@@H](CN5CC6C5CCN6C5COC5)CC4(C)C)c(-c4c(Cl)c(Cl)cc5[nH]ncc45)c3C)C2)C1 (single isomer, unassigned) [Example 278b, 1-(6-(4-(5,6-dichloro-1H-indazol-4-yl)-3-((R)-2,2-dimethyl-4-(((1S*,5S*)-2-(oxetan-3-yl)-2,6-diazabicyclo[3.2.0]heptan-6-yl)methyl)piperidin-1-yl)-5-methyl-1H-pyrazol-1-yl)-2-azaspiro[3.3]heptan-2-yl)prop-2-en-1-one] | 0.008
13 | C=CC(=O)N1CC2(CC(n3nc(N4CC[C@@H](CN5CCN6CCOC[C@@H]6C5)CC4(C)C)c(-c4c(Cl)c(Cl)cc5[nH]ncc45)c3C)C2)C1 (single isomer, unassigned) [Example 279a] | 3.8
14 | C=CC(=O)N1CC2(CC(n3nc(N4CC[C@@H](CN5CCN6CCOC[C@@H]6C5)CC4(C)C)c(-c4c(Cl)c(Cl)cc5[nH]ncc45)c3C)C2)C1 (single isomer, unassigned) [Example 279b] | 0.006
15 | C=CC(=O)N1CC2(CC(n3nc(N4CC[C@@H](CN5CCN(C6COC6)C6COCC65)CC4(C)C)c(-c4c(Cl)c(Cl)cc5[nH]ncc45)c3C)C2)C1 (single isomer, unassigned) [Example 280a, 1-(6-(4-(5,6-dichloro-1H-indazol-4-yl)-3-((R)-2,2-dimethyl-4-(((4aS*,7aR*)-4-(oxetan-3-yl)hexahydrofuro[3,4-b]pyrazin-1(2H)-yl)methyl)piperidin-1-yl)-5-methyl-1H-pyrazol-1-yl)-2-azaspiro[3.3]heptan-2-yl)prop-2-en-1-one] | > 5
16 | C=CC(=O)N1CC2(CC(n3nc(N4CC[C@@H](CN5CCN(C6COC6)C6COCC65)CC4(C)C)c(-c4c(Cl)c(Cl)cc5[nH]ncc45)c3C)C2)C1 (single isomer, unassigned) [Example 280b, 1-(6-(4-(5,6-dichloro-1H-indazol-4-yl)-3-((R)-2,2-dimethyl-4-(((4aS*,7aR*)-4-(oxetan-3-yl)hexahydrofuro[3,4-b]pyrazin-1(2H)-yl)methyl)piperidin-1-yl)-5-methyl-1H-pyrazol-1-yl)-2-azaspiro[3.3]heptan-2-yl)prop-2-en-1-one] | 0.007
